The record followed here is patent US6713475B2, “Tricyclic benzodiazepines as vasopressin receptor antagonists” (Ortho-McNeil Pharmaceutical, Inc., priority 1999, dated 2004).

Where “and” joins values, the source holds several entries; their conditions need not be identical. Equal values may be shown once.

The target of one assay is V2 (Homo sapiens, UniProt P30518). In words: In vitro recombinant vasopressin receptor binding assay (V2 Bdg), displacement of 3H-arginine vasopressin. Details: expressed in transfected cells; host or cells: HEK-293. The note with it: 0.1 uM; printed in parentheses in place of IC50. How it is done: In vitro Recombinant Vasopressin Receptor Binding Assay
Compounds were assessed for their ability to displace ^3H-arginine vasopressin from the human V-1 or V-2 receptor in HEK-293 cells. […] Into wells of 96-well round bottom polypropylene plates were added buffer, test compound, membrane (containing cloned human V-1 or V-2 receptor), and ^3H-vasopressin. The reaction plates were allowed to sit at room temperature for one hour. The samples were filtered through Unifilter GF/C plates (presoaked in 0.3 polyethyleneimine). The plates were washed 5 times with cold physiological saline containing 0.05% Tween 20. After drying, the bottom of the filter plates were sealed and 0.025 ml of Microscint-20 was added to each filter. The top of the plate was sealed, and the plate was counted.
With `O=C(Nc1ccc(C(=O)N2CC3CSCCN3Cc3ccccc32)cc1)c1ccccc1-c1cccs1` (racemic) [Compound 52, (RS)-2-(2-Thienyl)-N-[4-(1,3,4,12a-tetrahydro-6H-[1,4]thiazino[4,3-a][1,4]-benzodiazepin-11(12H)-yl-carbonyl)phenyl]benzamide], the “V2 Bdg % inh” value is “(36%/0.1 uM)”.

“(RS)-2-(3-Thienyl)-N-[4-(1,3,4,12a-tetrahydro-6H-[1,4]thiazino[4,3-a][1,4]-benzodiazepin-11(12H)-yl-carbonyl)phenyl]benzamide [Compound 49]”: the “V2 Bdg % inh” value is given as “(59%/0.1 uM)”.

`O=C(Nc1ccc(C(=O)N2CC3CNCCN3Cc3ccccc32)cc1)c1ccccc1-c1ccccc1` (racemic) [Compound 58, (RS)-2-Phenyl-N-[4-(1,3,4,12a-tetrahydro-6H-[1,4]pyrazino[4,3-a][1,4]-benzodiazepin-11(12H)-yl-carbonyl)phenyl]benzamide]: the “V2 Bdg % inh” value is recorded as “(33%/0.1 uM)”.

As to `CN1CCN2Cc3ccccc3N(C(=O)c3ccc(NC(=O)c4cccc(Cl)c4F)cc3Cl)CC2C1` (racemic) [Compound 65, (RS)-2-Fluoro-3-chloro-N-[3-chloro-4-(1,3,4,12a-tetrahydro-2-methyl-6H-[1,4]pyrazino[4,3-a][1,4]-benzodiazepin-11(12H)-yl-carbonyl)phenyl]benzamide], the “V2 Bdg % inh” value is recorded as “(17%/0.1 uM)”. Same read-out and setting: to `Cc1ccc(-c2ccccc2C(=O)Nc2ccc(C(=O)N3CC4CN(C)CCN4Cc4ccccc43)cc2C)cc1` (racemic) [Compound 79, (RS)-2-(4-Methyl-phenyl)-N-[2-methyl-4-(1,3,4,12a-tetrahydro-2-methyl-6H-(1,4]pyrazino[4,3-a][1,4]-benzodiazepin-11(12H)-yl-carbonyl)phenyl]benzamide] belongs “(33%/0.1 uM)”. Turning to `Cc1cccc(C(=O)Nc2ccc(C(=O)N3CC4CN(C)CCN4Cc4ccccc43)c(Cl)c2)c1C` (racemic) [Compound 62, (RS)-2,3-Dimethyl-N-[3-chloro-4-(1,3,4,12a-tetrahydro-2-methyl-6H-[1,4]pyrazino[4,3-a][1,4]-benzodiazepin-11(12H)-yl-carbonyl)phenyl]benzamide], the “V2 Bdg % inh” value was 28% and 48%. Same read-out and setting: then `CN1CCN2Cc3ccccc3N(C(=O)c3ccc(NC(=O)c4ccccc4-c4ccccc4)cc3C(F)(F)F)CC2C1` (racemic) [Compound 75, (RS)-2-Phenyl-N-[3-trifluoromethyl-4-(1,3,4,12a-tetrahydro-2-methyl-6H-[1,4]pyrazino[4,3-a][1,4]-benzodiazepin-11(12H)-yl-carbonyl)phenyl]benzamide], with “(2%/0.1 uM)”; and “(RS)-2-Methyl-5-fluoro-N-[3-chloro-4-(1,3,4,12a-tetrahydro-2-methyl-6H-[1,4]pyrazino[4,3-a][1,4]-benzodiazepin-11(12H)-yl-carbonyl)phenyl]benzamide [Compound 94]”, with “(39%/0.1 uM)”; and `CN1CCN2Cc3ccccc3N(C(=O)c3ccc(NC(=O)c4ccccc4F)cc3Cl)CC2C1` (racemic) [Compound 64, (RS)-2-Fluoro-N-[3-chloro-4-(1,3,4,12a-tetrahydro-2-methyl-6H-[1,4]pyrazino[4,3-a][1,4]-benzodiazepin-11(12H)-yl-carbonyl)phenyl]benzamide], with 0% and 5%.

Still in this assay, the particulars now being: membrane with cloned human V-2 receptor (HEK-293).
Turning to `Cc1csc(-c2ccccc2C(=O)Nc2ccc(C(=O)N3CC4CSCCN4Cc4ccccc43)cc2)c1` (racemic) [Compound 53, (RS)-2-(4-Methyl-2-thienyl)-N-[4-(1,3,4,12a-tetrahydro-6H-[1,4]thiazino[4,3-a][1,4]-benzodiazepin-11(12H)-yl-carbonyl)phenyl]benzamide], the half-inhibitory concentration (IC50) turned out to be 15 nM. Still for that read-out and setting: then `Cc1ccc(-c2ccccc2C(=O)Nc2ccc(C(=O)N3CC4COCCN4Cc4ccccc43)cc2)cc1` (racemic) [Compound 12, (RS)-2-(4-Methyl-phenyl)-N-[4-(1,3,4,12a-tetrahydro-6H-[1,4]oxazino[4,3-a][1,4]-benzodiazepin-11(12H)-yl-carbonyl)phenyl]benzamide], with 6 nM; and `O=C(Nc1ccc(C(=O)N2CC3CSCCN3Cc3ccccc32)c(Cl)c1)c1cc(F)ccc1-c1ccccc1` (racemic) [Compound 104, (RS)-2-Phenyl-5-fluoro-N-[3-chloro-4-(1,3,4,12a-tetrahydro-6H-[1,4]thiazino[4,3-a][1,4]-benzodiazepin-11(12H)-yl-carbonyl)phenyl]benzamide], with 79 nM. On the same count and under the same terms, to `COc1ccc(C(=O)Nc2ccc(C(=O)N3CC4COCCN4Cc4ccccc43)c(Cl)c2)c(-c2ccccc2)c1` (racemic) [Compound 115, (RS)-2-Phenyl-4-methoxy-N-[3-chloro-4-(1,3,4,12a-tetrahydro-6H-[1,4]oxazino[4,3-a][1,4]-benzodiazepin-11(12H)-yl-carbonyl)phenyl]benzamide] belongs 9 nM; to `CN1CCN2Cc3ccccc3N(C(=O)c3ccc(NC(=O)c4ccccc4-c4ccccc4)cc3Cl)CC2C1` (racemic) [Compound 56, (RS)-2-Phenyl-N-[3-chloro-4-(1,3,4,12a-tetrahydro-2-methyl-6H-[1,4]pyrazino[4,3-a][1,4]-benzodiazepin-11(12H)-yl-carbonyl)phenyl]benzamide], 35 nM and 54 nM. With `O=C(Nc1ccc(C(=O)N2CC3CSCCN3Cc3ccccc32)c(Cl)c1)c1ccc(F)cc1-c1ccccc1` (racemic) [Compound 105, (RS)-2-Phenyl-4-fluoro-N-[3-chloro-4-(1,3,4,12a-tetrahydro-6H-[1,4]thiazino[4,3-a][1,4]-benzodiazepin-11(12H)-yl-carbonyl)phenyl]benzamide], the IC50 was determined as 8 nM. Consider `O=C(Nc1ccc(C(=O)N2C[C@H]3CSCCN3Cc3ccccc32)c(Cl)c1)c1ccccc1-c1ccccc1` [Compound 47, (S)-2-Phenyl-N-[3-chloro-4-(1,3,4,12a-tetrahydro-6H-[1,4]thiazino[4,3-a][1,4]-benzodiazepin-11(12H)-yl-carbonyl)phenyl]benzamide], for which the IC50 came to 11 nM. For `O=C(Nc1ccc(C(=O)N2CC3CSCCN3Cc3ccccc32)c(F)c1)c1ccccc1-c1ccccc1` (racemic) [Compound 106, (RS)-2-Phenyl-N-[3-fluoro-4-(1,3,4,12a-tetrahydro-6H-[1,4]thiazinol[4,3-a][1,4]-benzodiazepin-11(12H)-yl-carbonyl)phenyl]benzamide], the concentration for half-maximal inhibition (IC50) worked out at 22 nM. For `O=C(Nc1ccc(C(=O)N2C[C@@H]3COCCN3Cc3ccccc32)c(Cl)c1)c1ccccc1-c1ccccc1` [Compound 13, (R)-2-Phenyl-N-[3-chloro-4-(1,3,4,12a-tetrahydro-6H-[1,4]oxazino[4,3-a][1,4]-benzodiazepin-11(12H)-yl-carbonyl)phenyl]benzamide], the 50% inhibitory concentration (IC50) came to 32 nM. The same measure, in the same setting: to `Cc1ccc(F)cc1C(=O)Nc1ccc(C(=O)N2CC3COCCN3Cc3ccccc32)c(Cl)c1` (racemic) [Compound 110, (RS)-2-Methyl-5-fluoro-N-[3-chloro-4-(1,3,4,12a-tetrahydro-6H-[1,4]oxazino[4,3-a][1,4]-benzodiazepin-11(12H)-yl-carbonyl)phenyl]benzamide] belongs 6 nM.

`O=C(Nc1ccc(C(=O)N2CC3COCCN3Cc3ccccc32)c(Cl)c1)c1ccc(F)cc1-c1ccccc1` (racemic) [Compound 114, (RS)-2-Phenyl-4-fluoro-N-[3-chloro-4-(1,3,4,12a-tetrahydro-6H-[1,4]oxazino[4,3-a][1,4]-benzodiazepin-11(12H)-yl-carbonyl)phenyl]benzamide]: the IC50 amounted to 4 nM. As to `O=C(Nc1ccc(C(=O)N2CC3CS(=O)(=O)CCN3Cc3ccccc32)cc1)c1ccccc1-c1ccccc1` (racemic) [Compound 55, (RS)-2-Phenyl-N-[4-(1,3,4,12a-tetrahydro-2,2-dioxo-6H-[1,4]thiazino[4,3-a][1,4]-benzodiazepin-11(12H)-yl-carbonyl)phenyl]benzamide], the half-maximal inhibitory concentration (IC50) was 140 nM.

For the compound `COc1ccc(-c2ccccc2C(=O)Nc2ccc(C(=O)N3CC4COCCN4Cc4ccccc43)c(Cl)c2)cc1` (racemic) [Compound 112, (RS)-2-(4-Methoxy-phenyl)-N-[3-chloro-4-(1,3,4,12a-tetrahydro-6H-[1,4]oxazino[4,3-a][1,4]-benzodiazepin-11(12H)-yl-carbonyl)phenyl]benzamide], the IC50 is 6 nM. As to `COc1cc(NC(=O)c2ccccc2-c2ccccc2)ccc1C(=O)N1CC2CSCCN2Cc2ccccc21` (racemic) [Compound 108, (RS)-2-Phenyl-N-[3-methoxy-4-(1,3,4,12a-tetrahydro-6H-[1,4]thiazino[4,3-a][1,4]-benzodiazepin-11(12H)-yl-carbonyl)phenyl)benzamide], the IC50 worked out at 32 nM.

Still in this assay, the particulars now being: read-out: V2 Bdg % inh.
Turning to `COc1cccc2c1N(C(=O)c1ccc(NC(=O)c3ccccc3-c3ccccc3)cc1)CC1CSCCN1C2` (racemic) [Compound 40, (RS)-2-Phenyl-N-[4-(10-methoxy-1,3,4,12a-tetrahydro-6H-[1,4]thiazino[4,3-a][1,4]-benzodiazepin-11(12H)-yl-carbonyl)phenyl]benzamide], the inhibition at 0.1 µM is 12%. Same read-out and setting: then `CN1CCN2Cc3ccccc3N(C(=O)c3ccc(NC(=O)c4ccccc4-c4ccccc4)cc3Cl)CC2C1` (racemic) [Compound 56, (RS)-2-Phenyl-N-[3-chloro-4-(1,3,4,12a-tetrahydro-2-methyl-6H-[1,4]pyrazino[4,3-a][1,4]-benzodiazepin-11(12H)-yl-carbonyl)phenyl]benzamide], with 71%. The same measure, in the same setting: then `Cc1cccc2c1N(C(=O)c1ccc(NC(=O)c3ccccc3-c3ccccc3)cc1)CC1CSCCN1C2` (racemic) [Compound 39, (RS)-2-Phenyl-N-[4-(10-methyl-1,3,4,12a-tetrahydro-6H-[1,4]thiazino[4,3-a][1,4]-benzodiazepin-11(12H)-yl-carbonyl)phenyl]benzamide], with 37%.
